Data reported in ChEMBL document CHEMBL4425158, “Synthesis, structure-activity relationships and biological evaluation of 4,5,6,7-tetrahydropyrazolopyrazines as metabotropic glutamate receptor 5 negative allosteric modulators” (Bioorg Med Chem Lett, 2016).
Calls of active or inactive are those of the source. The rule behind the calls is not given here.

Key:
[1] = target: Metabotropic glutamate receptor 5 (Homo sapiens, UniProt P41594); assay: Negative allosteric modulation of human recombinant mGluR5 expressed in HEK293 cells assessed as L-glutamate-induced intracellular calcium mobilization incubated for 20 mins before L-glutamate addition; format: functional, cell-based
Sequence of Metabotropic glutamate receptor 5 (P41594 whole entry): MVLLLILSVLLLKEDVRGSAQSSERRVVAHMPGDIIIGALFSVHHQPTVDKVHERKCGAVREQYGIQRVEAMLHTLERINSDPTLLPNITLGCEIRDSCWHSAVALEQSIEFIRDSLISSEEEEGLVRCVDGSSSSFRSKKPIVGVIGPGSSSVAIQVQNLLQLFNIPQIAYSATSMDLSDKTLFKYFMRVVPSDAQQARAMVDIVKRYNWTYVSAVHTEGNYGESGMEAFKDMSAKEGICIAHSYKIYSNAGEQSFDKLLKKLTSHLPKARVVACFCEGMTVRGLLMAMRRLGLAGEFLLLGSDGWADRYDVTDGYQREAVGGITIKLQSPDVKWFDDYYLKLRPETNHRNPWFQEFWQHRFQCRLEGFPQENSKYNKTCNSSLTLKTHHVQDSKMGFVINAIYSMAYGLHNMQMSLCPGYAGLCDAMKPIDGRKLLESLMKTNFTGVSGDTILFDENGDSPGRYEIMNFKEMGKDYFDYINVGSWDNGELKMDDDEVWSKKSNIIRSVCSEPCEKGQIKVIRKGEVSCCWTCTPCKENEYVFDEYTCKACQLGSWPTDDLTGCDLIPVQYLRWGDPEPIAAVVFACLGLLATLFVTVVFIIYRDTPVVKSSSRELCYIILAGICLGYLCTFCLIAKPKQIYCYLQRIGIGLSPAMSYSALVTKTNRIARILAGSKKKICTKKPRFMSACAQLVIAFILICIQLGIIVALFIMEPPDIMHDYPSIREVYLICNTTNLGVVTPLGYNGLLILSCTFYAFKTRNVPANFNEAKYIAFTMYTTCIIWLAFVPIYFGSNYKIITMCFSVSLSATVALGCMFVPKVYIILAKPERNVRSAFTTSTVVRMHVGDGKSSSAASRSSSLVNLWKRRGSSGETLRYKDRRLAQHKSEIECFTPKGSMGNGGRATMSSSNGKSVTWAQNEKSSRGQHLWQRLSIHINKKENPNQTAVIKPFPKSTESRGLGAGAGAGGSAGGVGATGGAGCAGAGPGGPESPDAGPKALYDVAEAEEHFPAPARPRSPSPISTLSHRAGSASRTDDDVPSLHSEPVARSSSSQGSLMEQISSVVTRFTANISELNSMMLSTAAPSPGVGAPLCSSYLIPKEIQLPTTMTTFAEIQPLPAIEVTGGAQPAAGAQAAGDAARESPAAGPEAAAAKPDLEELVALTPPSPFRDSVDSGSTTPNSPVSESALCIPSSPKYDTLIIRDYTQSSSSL

Mus musculus = assay: Antidepressant activity in CD1(ICR) mouse assessed as decrease in immobility time at 60 mg/kg, po after 1 hr by tail suspension test; format: functional, organism-based

Work on `O=C(c1ccc(Cl)cc1)N1CCn2nc(-c3ccccn3)cc2C1` yielded an IC50 [1] of 9.47 µM.
For `CC(C)(C)c1cc2n(n1)CCN(C(=O)c1ccc3ccccc3c1)C2`, the IC50 [1] was 0.477 µM.
`COc1cccc(C(=O)N2CCn3nc(-c4ccc(F)cn4)cc3C2)c1` showed an IC50 [1] of 0.482 µM.
With `N#Cc1cccc(C(=O)N2CCn3nc(-c4ccc(F)cn4)cc3C2)c1` the IC50 [1] was greater than 10 µM.
`Cc1cccc(-c2cc3n(n2)CCN(C(=O)c2ccccc2)C3)n1` gave an IC50 [1] of 0.568 µM.
In the case of `CN(C)CCCN1c2ccccc2CCc2ccccc21`, the Activity (Mus musculus) is reported as “Active”.
In the case of `Cc1ccc(-c2cc3n(n2)CCN(C(=O)c2ccccc2)C3)nc1`, the IC50 [1] is reported as 0.244 µM.
Compound `O=C(c1cccc(Cl)c1)N1CCn2nc(-c3ccccn3)cc2C1` has an IC50 [1] of 0.176 µM.
`Cc1cccc(C(=O)N2CCn3nc(-c4ccc(F)cn4)cc3C2)c1` showed an IC50 [1] of 0.15 µM.
Compound `O=C(c1cccc(C(F)(F)F)c1)N1CCn2nc(-c3ccc(F)cn3)cc2C1` has an IC50 [1] of 0.383 µM.
With `Cc1cc(F)cc(C(=O)N2CCn3nc(-c4ccc(F)cn4)cc3C2)c1` the IC50 [1] was 0.197 µM.
For `O=C(c1cc(Cl)cc(Cl)c1)N1CCn2nc(-c3ccccn3)cc2C1`, the IC50 [1] was 0.27 µM.
